# According to patent publication US12708640B2, “Synergistic nutritional compositions for treating vestibular associated neurodegenerative diseases” (CELAGENEX RESEARCH (INDIA) PVT. LTD., priority 2021, dated 2026):
# Legend:
# Type in all cases: in vivo, Albino Wistar rat
# [1] = Rat body weight in the sodium arsanilate vestibular dysfunction study; conditions: rats, group value; for Body Weight, End of the treatment: after 7 days daily treatment
# Text: (§1) “Evaluation of test substance on sodium arsanilate induced vestibular dysfunction (Vertigo disorder) in wistar rats”.
# (§2) • Test Species: Rat • Strain: Albino Wistar • Sex: Male/Female • Age: 6-8 Weeks • Body Weight: 180-200 g • Source: In house breed • Total No. of Animals: 42 Animals (7 groups of 6 animals each) • Feed: Normal chow diet (Purina lab diet 5L79 Rat and Mouse 18%) (PMI Nutrition International) Environmental Conditions:
# (§3) All the animals were acclimatized for at least 5 days under controlled environmental condition. Total 42 animals were divided into seven groups consisting of 6 animals per group. Normal control (G1) group receiving vehicle, disease control (G2) group receiving sodium arsanilate injection only, standard group (G3) receiving reference standard (vertin) and treatment groups G4, G5, G6 & G7 were treated with the test substances. All the groups (except normal control group) were induced with sodium arsanilate via intratymphanic injection. All the treatment groups were administered daily for 7 consecutive days.
# Individual body weights were recorded at receipt, on the day of randomization, on the first day of treatment before dosing and weekly once thereafter throughout the treatment period. The body weight changes for all the animals were calculated and reported along with the body weight data.
# [2] = Rat feed consumption in the sodium arsanilate vestibular dysfunction study; conditions: rats, group value
# Text: as §1, §2, §3
# The feed consumption was calculated and reported on a daily basis throughout the study period.
# [3] = test system: sodium arsanilate induced vestibular dysfunction (Vertigo disorder) in wistar rats; experiment: Air righting reflex (air reflecting index); conditions: for Air Righting Reflex (% of Rats that successfully righted themselves within 5 s), Average: group average of 6 animals
# Text: as §1
# (§4) Vestibular dysfunction was induced in rats by intratympanic injection of sodium arsanilate an ototoxic compound. Sodium arsanilate is an arsenic derivative and intratympanic injection result was vestibular nerve degeneration in brain stem with concomitant loss of labyrinthine righting and reduced postural support with exaggerated head dorsiflexion.
# as §3
# A sponge was spread on a flat surface and the animals were placed in a supine position in the air 50 cm away above the sponge, following which the animal was dropped horizontally.
# Four-legged smooth landing on the ground was considered as positive (normal animal), whereas the body or other regions landing first was considered vestibular dysfunction animals. The positive landing rate (%) of each rat in each group was recorded.
# [4] = test system: sodium arsanilate induced vestibular dysfunction (Vertigo disorder) in wistar rats; experiment: Contact righting reflex; conditions: for Contact righting reflex (time), Average: group average of 6 animals
# Text: as §1, §4, §3
# The rats were placed in a syringe core tube in a supine position, following which the recovery time for position correction to be recorded. Normal rats turned over their body position in a few seconds.
# [5] = test system: sodium arsanilate induced vestibular dysfunction (Vertigo disorder) in wistar rats; experiment: Open field test; conditions: for Ambulation Score [the number of open-field sections entered by the rat], Average / Defecation [the number of fecal boli deposited in the open-field], Average / Grooming [the number of grooming bouts exhibited by the rat], Average / Rearing Responses [the number of times the animal raised both forefeet off the floor and extended its body], Average: group average of 6 animals; for % Improvement in Ambulation score wrt. G2 / % Improvement in Defecation wrt. G2 / % Improvement in Grooming wrt. G2 / % Improvement in Rearing Responses wrt. G2: open field test, wrt. disease control G2
# Text: as §1, §4, §3
# The open-field was circular, with a diameter of 90 cm, and enclosed by a wall 30 cm high. The floor and wall of the open-field was black and the floor was divided into 25 equal area sections by thin white lines. The floor was covered with a transparent plastic coating. The open-field apparatus was located inside a large wooden frame which surrounded on all sides by black curtains. The field was illuminated by two 60-W fluorescent lights located 100 cm above the floor.
# At the start of each session the rats were placed in one of the peripheral sections of the open-field and the animal's behavior was monitored by an observer for 10 consecutive minutes. […] At the end of each session the rat was returned to its home cage and the floor of the open-field was cleaned and sponged over with a weak vinegar solution to remove any residual odors.
# [6] = animal 1, end of 7-day treatment
# [7] = animal 2, end of 7-day treatment
# [8] = animal 3, end of 7-day treatment
# [9] = animal 4, end of 7-day treatment
# [10] = animal 5, end of 7-day treatment
# [11] = animal 6, end of 7-day treatment
# [12] = animal 1, recovery time for position correction
# [13] = animal 2, recovery time for position correction
# [14] = animal 3, recovery time for position correction
# [15] = animal 4, recovery time for position correction
# [16] = animal 5, recovery time for position correction
# [17] = animal 6, recovery time for position correction
smiles,measurement,setting,value
"CC(=O)NC(CC(C)C)C(=O)O (racemic) [Group 4, N-Acetyl-DL-leucine enantiomerically enriched (EE) with L-leucine]","Body Weight, End of the treatment",[1],190.77 gm
same,"Body Weight, Initial",[1],189.15 gm
same,"Feed Consumption, 0 day",[2],16.00 gm
same,"Feed Consumption, 7th day",[2],16.67 gm
same,Air Righting Reflex (% successfully righted within 5 s),[3]; animal 1,40%
same,"Air Righting Reflex, Successful out of 5",[3]; [6],2
same,Air Righting Reflex (% successfully righted within 5 s),[3]; animal 2,60%
same,"Air Righting Reflex, Successful out of 5",[3]; [7],3
same,Air Righting Reflex (% successfully righted within 5 s),[3]; animal 3,40%
same,"Air Righting Reflex, Successful out of 5",[3]; [8],2
same,Air Righting Reflex (% successfully righted within 5 s),[3]; animal 4,40%
same,"Air Righting Reflex, Successful out of 5",[3]; [9],2
same,Air Righting Reflex (% successfully righted within 5 s),[3]; animal 5,60%
same,"Air Righting Reflex, Successful out of 5",[3]; [10],3
same,Air Righting Reflex (% successfully righted within 5 s),[3]; animal 6,40%
same,"Air Righting Reflex, Successful out of 5",[3]; [11],2
same,"Air Righting Reflex (% of Rats that successfully righted themselves within 5 s), Average",[3],46.67%
same,Contact righting reflex (time),[4]; [12],27 s
same,Contact righting reflex (time),[4]; [13],26 s
same,Contact righting reflex (time),[4]; [14],25 s
same,Contact righting reflex (time),[4]; [15],28 s
same,Contact righting reflex (time),[4]; [16],27 s
same,Contact righting reflex (time),[4]; [17],28 s
same,"Contact righting reflex (time), Average",[4],26.83 s
same,"contact righting reflex, improvement (wrt. the Disease Control)",[4],up to 34%
same,Ambulation Score [the number of open-field sections entered by the rat],[5]; animal 1,210
same,Defecation [the number of fecal boli deposited in the open-field],[5]; animal 1,2
same,Grooming [the number of grooming bouts exhibited by the rat],[5]; animal 1,3
same,Rearing Responses [the number of times the animal raised both forefeet off the floor and extended its body],[5]; animal 1,4
same,Ambulation Score [the number of open-field sections entered by the rat],[5]; animal 2,200
same,Defecation [the number of fecal boli deposited in the open-field],[5]; animal 2,3
same,Grooming [the number of grooming bouts exhibited by the rat],[5]; animal 2,4
same,Rearing Responses [the number of times the animal raised both forefeet off the floor and extended its body],[5]; animal 2,3
same,Ambulation Score [the number of open-field sections entered by the rat],[5]; animal 3,220
same,Defecation [the number of fecal boli deposited in the open-field],[5]; animal 3,4
same,Grooming [the number of grooming bouts exhibited by the rat],[5]; animal 3,3
same,Rearing Responses [the number of times the animal raised both forefeet off the floor and extended its body],[5]; animal 3,5
same,Ambulation Score [the number of open-field sections entered by the rat],[5]; animal 4,220
same,Defecation [the number of fecal boli deposited in the open-field],[5]; animal 4,2
same,Grooming [the number of grooming bouts exhibited by the rat],[5]; animal 4,3
same,Rearing Responses [the number of times the animal raised both forefeet off the floor and extended its body],[5]; animal 4,4
same,Ambulation Score [the number of open-field sections entered by the rat],[5]; animal 5,210
same,Defecation [the number of fecal boli deposited in the open-field],[5]; animal 5,3
same,Grooming [the number of grooming bouts exhibited by the rat],[5]; animal 5,4
same,Rearing Responses [the number of times the animal raised both forefeet off the floor and extended its body],[5]; animal 5,6
same,Ambulation Score [the number of open-field sections entered by the rat],[5]; animal 6,220
same,Defecation [the number of fecal boli deposited in the open-field],[5]; animal 6,4
same,Grooming [the number of grooming bouts exhibited by the rat],[5]; animal 6,2
same,Rearing Responses [the number of times the animal raised both forefeet off the floor and extended its body],[5]; animal 6,4
same,"Ambulation Score [the number of open-field sections entered by the rat], Average",[5],213.33
same,"Defecation [the number of fecal boli deposited in the open-field], Average",[5],3.00
same,"Grooming [the number of grooming bouts exhibited by the rat], Average",[5],3.17
same,"Rearing Responses [the number of times the animal raised both forefeet off the floor and extended its body], Average",[5],4.33
same,% Improvement in Ambulation score wrt. G2,[5],15.23%
same,% Improvement in Defecation wrt. G2,[5],30.77%
same,% Improvement in Grooming wrt. G2,[5],59.57%
same,% Improvement in Rearing Responses wrt. G2,[5],40.62%
"CNCCc1ccccn1 [Group 3, reference compound]","Body Weight, End of the treatment",[1],188.10 gm
same,"Body Weight, Initial",[1],186.83 gm
same,"Feed Consumption, 0 day",[2],15.33 gm
same,"Feed Consumption, 7th day",[2],16.00 gm
same,Air Righting Reflex (% successfully righted within 5 s),[3]; animal 1,40%
same,"Air Righting Reflex, Successful out of 5",[3]; [6],2
same,Air Righting Reflex (% successfully righted within 5 s),[3]; animal 2,60%
same,"Air Righting Reflex, Successful out of 5",[3]; [7],3
same,Air Righting Reflex (% successfully righted within 5 s),[3]; animal 3,40%
same,"Air Righting Reflex, Successful out of 5",[3]; [8],2
same,Air Righting Reflex (% successfully righted within 5 s),[3]; animal 4,60%
same,"Air Righting Reflex, Successful out of 5",[3]; [9],3
same,Air Righting Reflex (% successfully righted within 5 s),[3]; animal 5,40%
same,"Air Righting Reflex, Successful out of 5",[3]; [10],2
same,Air Righting Reflex (% successfully righted within 5 s),[3]; animal 6,60%
same,"Air Righting Reflex, Successful out of 5",[3]; [11],3
same,"Air Righting Reflex (% of Rats that successfully righted themselves within 5 s), Average",[3],50.00%
same,Contact righting reflex (time),[4]; [12],21 s
same,Contact righting reflex (time),[4]; [13],26 s
same,Contact righting reflex (time),[4]; [14],28 s
same,Contact righting reflex (time),[4]; [15],23 s
same,Contact righting reflex (time),[4]; [16],27 s
same,Contact righting reflex (time),[4]; [17],26 s
same,"Contact righting reflex (time), Average",[4],25.17 s
same,"contact righting reflex, improvement (wrt. the Disease Control)",[4],around 38%
same,Ambulation Score [the number of open-field sections entered by the rat],[5]; animal 1,200
same,Defecation [the number of fecal boli deposited in the open-field],[5]; animal 1,3
same,Grooming [the number of grooming bouts exhibited by the rat],[5]; animal 1,4
same,Rearing Responses [the number of times the animal raised both forefeet off the floor and extended its body],[5]; animal 1,5
same,Ambulation Score [the number of open-field sections entered by the rat],[5]; animal 2,210
same,Defecation [the number of fecal boli deposited in the open-field],[5]; animal 2,4
same,Grooming [the number of grooming bouts exhibited by the rat],[5]; animal 2,3
same,Rearing Responses [the number of times the animal raised both forefeet off the floor and extended its body],[5]; animal 2,4
same,Ambulation Score [the number of open-field sections entered by the rat],[5]; animal 3,215
same,Defecation [the number of fecal boli deposited in the open-field],[5]; animal 3,2
same,Grooming [the number of grooming bouts exhibited by the rat],[5]; animal 3,3
same,Rearing Responses [the number of times the animal raised both forefeet off the floor and extended its body],[5]; animal 3,6
same,Ambulation Score [the number of open-field sections entered by the rat],[5]; animal 4,230
same,Defecation [the number of fecal boli deposited in the open-field],[5]; animal 4,3
same,Grooming [the number of grooming bouts exhibited by the rat],[5]; animal 4,5
same,Rearing Responses [the number of times the animal raised both forefeet off the floor and extended its body],[5]; animal 4,4
same,Ambulation Score [the number of open-field sections entered by the rat],[5]; animal 5,220
same,Defecation [the number of fecal boli deposited in the open-field],[5]; animal 5,4
same,Grooming [the number of grooming bouts exhibited by the rat],[5]; animal 5,6
same,Rearing Responses [the number of times the animal raised both forefeet off the floor and extended its body],[5]; animal 5,5
same,Ambulation Score [the number of open-field sections entered by the rat],[5]; animal 6,225
same,Defecation [the number of fecal boli deposited in the open-field],[5]; animal 6,3
same,Grooming [the number of grooming bouts exhibited by the rat],[5]; animal 6,5
same,Rearing Responses [the number of times the animal raised both forefeet off the floor and extended its body],[5]; animal 6,4
same,"Ambulation Score [the number of open-field sections entered by the rat], Average",[5],216.67
same,"Defecation [the number of fecal boli deposited in the open-field], Average",[5],3.17
same,"Grooming [the number of grooming bouts exhibited by the rat], Average",[5],4.33
same,"Rearing Responses [the number of times the animal raised both forefeet off the floor and extended its body], Average",[5],4.67
same,% Improvement in Ambulation score wrt. G2,[5],13.91%
same,% Improvement in Defecation wrt. G2,[5],26.92%
same,% Improvement in Grooming wrt. G2,[5],44.68%
same,% Improvement in Rearing Responses wrt. G2,[5],43.75%
